Source: patent US20170097335A1, “Methods for Diagnosing Impaired Absorption of Amino Acids, Monosaccharides and Fatty Acids” (The Texas A&M University System, priority 2015, published 2017)

Legend:
[1] = Protein absorption in the intestinal walls: ratio of orally to intravenously provided isotopologue in blood, healthy volunteers; format: in vivo, human; conditions: FIG. 1
Procedure: (§1) Both human and animal models were used for measuring protein absorption in the intestinal walls. The subjects were prepared with indwelling catheters to enable blood sampling. Stable isotopes of amino acids are obtained and made into sterile and pyrogen-free solutions. These isotopes may comprise L-allo-[^2H10, ^15N]-isoleucine, L-allo-[^13C6]-isoleucine, D-1-[^13C]phenylalanine, D-C^3C6]phenylalanine, D-[^2H5]-phenylalanine, D-[2-^2H]phenylalanine. A blood sample is taken or drawn from each subject for a measurement of the natural background. A bolus or continuous infusion of the stable isotope of the amino acid may be used. The labeled amino acid is administered orally to each subject and another isotope of the amino acid nutrient is administered intravenously to the same subject at the same time or within 8 hours. Blood samples are taken or drawn from each subject in the time window of about one to several hours. The labeled amino acids enrichments in each sample are analyzed by Mass Spectrometry. Results from the Mass Spectrometry are applied to a non-compartmental model for analysis and ratio determination. The metabolic phenotype is produced based on the measured amino acids production, consumption and metabolism.

[2] = Conversion of D- into L-phenylalanine; format: in vivo; conditions: observed in the pig
Text: This allows for an estimation of the potential disturbance of the digestion and splanchnic extraction measurements that also involve L-phenylalanine stable isotopes.

[3] = Ratio of enterally to intravenously provided L-allo-isoleucine isotopologues in blood samples, pig model; format: in vivo
Procedure: as §1

CC[C@@H](C)[C@H](N)C(=O)O [L-allo-isoleucine]
absorption ratio of orally provided isotopologue over intravenously provided isotopologue [1]: about 0.8

N[C@H](Cc1ccccc1)C(=O)O [D-phenylalanine]
conversion rate of D- into L-phenylalanine [2]: 10%

[13CH3][13CH2][13C@@H]([13CH3])[13C@H](N)[13C](=O)O [L-allo-[^13C6]-isoleucine]
ratio of enterally administered over intravenously administered isotopologue ([3]; continuously fed pig (4 hours), over intravenously administered L-allo-[^2H10, ^15M-isoleucine, FIG. 4): about 0.8 | ratio of enterally administered over intravenously administered isotopologue ([3]; pigs with bolus feeding for 4 hours, over intravenously administered allo-Isoleucine[^2H10, ^15N](M9+M11), FIG. 5): about 0.8
